Reference: publication PMC4729137, “Functional analysis of androgen receptor mutations that confer anti-androgen resistance identified in circulating cell-free DNA from prostate cancer patients” (Genome Biology, 2016)
Residue numbers refer to the chain shown, from its start.

Columns and labels:
L882I-AR = target: T1, L882I-AR (Homo sapiens, UniProt P10275, L882I); format: cell-based; settings: AR mutant L882I; transfected PC3 cells; 0.1 nM R1881; drug 0 to 50 μM
T1 sequence (P10275 1-920 L882I): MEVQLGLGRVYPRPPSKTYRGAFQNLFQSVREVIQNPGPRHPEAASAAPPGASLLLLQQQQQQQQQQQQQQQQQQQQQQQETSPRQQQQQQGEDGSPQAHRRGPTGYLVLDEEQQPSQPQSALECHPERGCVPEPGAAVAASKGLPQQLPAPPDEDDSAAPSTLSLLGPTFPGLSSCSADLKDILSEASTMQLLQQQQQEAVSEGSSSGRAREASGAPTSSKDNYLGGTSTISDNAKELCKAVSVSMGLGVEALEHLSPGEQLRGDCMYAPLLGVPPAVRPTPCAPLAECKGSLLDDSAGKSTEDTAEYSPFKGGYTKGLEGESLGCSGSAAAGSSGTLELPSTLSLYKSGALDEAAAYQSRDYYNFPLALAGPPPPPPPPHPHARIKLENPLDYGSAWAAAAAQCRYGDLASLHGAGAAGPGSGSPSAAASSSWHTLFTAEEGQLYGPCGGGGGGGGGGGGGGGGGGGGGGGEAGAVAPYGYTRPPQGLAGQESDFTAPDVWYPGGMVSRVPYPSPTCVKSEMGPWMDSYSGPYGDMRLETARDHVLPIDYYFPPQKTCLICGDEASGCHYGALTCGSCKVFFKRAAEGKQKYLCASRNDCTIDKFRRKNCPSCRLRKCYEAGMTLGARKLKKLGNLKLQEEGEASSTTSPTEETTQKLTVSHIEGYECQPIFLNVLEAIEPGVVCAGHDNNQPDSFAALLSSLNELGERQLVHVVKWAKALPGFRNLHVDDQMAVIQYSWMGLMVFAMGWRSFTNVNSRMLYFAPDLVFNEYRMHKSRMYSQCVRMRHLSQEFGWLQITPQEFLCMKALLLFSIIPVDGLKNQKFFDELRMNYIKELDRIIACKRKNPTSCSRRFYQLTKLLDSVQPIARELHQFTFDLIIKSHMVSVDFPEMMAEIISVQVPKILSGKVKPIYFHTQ
Description: (§1) Full-length human AR (WT-AR) was encoded on a pcDNA3.1 expression plasmid (Life technologies). The LBD point mutations (single and multiple) were generated using the QuikChange II Site-Directed Mutagenesis Kit (Agilent Technologies) as per manufacturer’s instructions using WT-AR as the template. The mutagenic oligonucleotide primers were designed individually with the desired mutation in the middle of the primer with approximately 10 to 15 bases of correct sequence on both sides.
(§2) PC3 cells were seeded and transfected as described above. […] A non-stimulated/no R1881 control was used. After 24 h, cells were lysed and AR-dependent luciferase activity was quantified. Each concentration was assayed in quadruplicate n = 4, with a biological replicate of n = 3. Results were averaged and normalized by expressing them as a percentage of WT AR activity.

H875Y-AR = target: T2, H875Y-AR (Homo sapiens, UniProt P10275, H875Y); format: cell-based; settings: AR mutant H875Y; transfected PC3 cells; 0.1 nM R1881; drug 0 to 50 μM
T2 sequence (P10275 1-920 H875Y): T1 sequence (P10275 1-920 L882I) with H875Y, I882L
Description: as §1, §2

In the case of `CC(C)(O)C(=O)Nc1ccc([N+](=O)[O-])c(C(F)(F)F)c1` [Hydroxyflutamide, hydroxyflutamide], the “Agonist response to treatment” value (L882I-AR) is reported as “Partial” and the “Agonist response to treatment” value (H875Y-AR) is reported as “Yes”.
